{
  "source": "patent US20150250175A1",
  "about": "“PESTICIDALLY ACTIVE MIXTURES COMPRISING ANTHRANILAMIDE COMPOUNDS” (BASF SE, priority 2012, published 2015)",
  "key": {"[1]": {"tested_on": "tobacco budworm (Heliothis virescens)", "test": "Tobacco budworm (Heliothis virescens) control, insect diet with eggs, 96-well plates", "conditions": "5 days"}, "[2]": {"tested_on": "Mediterranean fruitfly (Ceratitis capitata)", "test": "Mediterranean fruitfly (Ceratitis capitata) control, insect diet with eggs, 96-well plates", "conditions": "5 days"}, "[3]": {"tested_on": "green peach aphid (Myzus persicae)", "test": "Green peach aphid (Myzus persicae) control, systemic, artificial diet under membrane, 96-well plates", "assay_type": "in vivo", "conditions": "3 days", "source_text": "After application, 5-8 adult aphids were placed on the artificial membrane inside the microtiter plate wells. […] Aphid mortality and fecundity was then visually assessed."}, "[4]": {"tested_on": "boll weevil (Anthonomus grandis)", "test": "Boll weevil (Anthonomus grandis) control, insect diet with eggs, 24-well plates", "conditions": "5 days"}, "[5]": {"tested_on": "vetch aphid (Megoura viciae)", "test": "Vetch aphid (Megoura viciae) control, broad bean leaf disks in 24-well microtiter plates", "assay_type": "in vivo", "conditions": "sprayed on leaf disks, aphid mortality and fecundity after 5 days", "source_text": "After application, the leaf disks were air-dried and 5-8 adult aphids placed on the leaf disks inside the microtiter plate wells. […] Aphid mortality and fecundity was then visually assessed."}, "[6]": {"conditions": "0.08 + 0 ppm (mixing partner alone at 0.08 ppm)"}, "[7]": {"conditions": "0 + 1 ppm (compound I alone at 1 ppm)"}, "[8]": {"conditions": "0 + 0.2 ppm (compound I alone at 0.2 ppm)"}, "[9]": {"conditions": "0 + 5 ppm (compound I alone at 5 ppm)"}, "[10]": {"conditions": "3.2 + 0 ppm (mixing partner alone at 3.2 ppm)"}, "[11]": {"conditions": "0.0016 + 0 ppm (mixing partner alone at 0.0016 ppm)"}},
  "data": [
    {"compound": "CN/C(=N\\[N+](=O)[O-])NCc1cnc(Cl)s1", "note": "[Clothianidin]", "values": [
      {"measurement": "Average (Control %)", "setting": "[1]; [6]", "value": 0, "unit": "%"},
      {"measurement": "Average (Control %)", "setting": "[2]; 1 + 0 ppm (mixing partner alone at 1 ppm)", "value": 0, "unit": "%"}
    ]},
    {"compound": "CCS(CC)=NC(=O)c1cc(Cl)cc(C)c1NC(=O)c1cc(C(F)(F)F)nn1-c1ncccc1Cl", "note": "[Compound I-11, 2-(3-chloro-2-pyridyl)-N-[2-methyl-4-chloro-6-[(diethyl-λ^4-sulfanylidene)carbamoyl]phenyl]-5-(trifluoromethyl)pyrazole-3-carboxamide]", "values": [
      {"measurement": "Average (Control %)", "setting": "[3]; [7]", "value": 0, "unit": "%"},
      {"measurement": "Average (Control %)", "setting": "[4]; [7]", "value": 0, "unit": "%"},
      {"measurement": "Average (Control %)", "setting": "[1]; [8]", "value": 0, "unit": "%"},
      {"measurement": "Average (Control %)", "setting": "[5]; Spirotetramat + I-11 at 0 + 1 ppm (I-11 alone, 1 ppm)", "value": 0, "unit": "%"}
    ]},
    {"compound": "CCS(CC)=NC(=O)c1cc(Cl)cc(Cl)c1NC(=O)c1cc(C(F)(F)F)nn1-c1ncccc1Cl", "note": "[Compound I-16, 2-(3-chloro-2-pyridyl)-N-[2,4-dichloro-6-[(diethyl-λ^4-sulfanylidene)carbamoyl]phenyl]-5-(trifluoromethyl)pyrazole-3-carboxamide]", "values": [
      {"measurement": "Average (Control %)", "setting": "[3]; [7]", "value": 25, "unit": "%"},
      {"measurement": "Average (Control %)", "setting": "[1]; [7]", "value": 0, "unit": "%"},
      {"measurement": "Average (Control %)", "setting": "[2]; [9]", "value": 0, "unit": "%"}
    ]},
    {"compound": "Cc1cc(Cl)cc(C(=O)N=S(C(C)C)C(C)C)c1NC(=O)c1cc(C(F)(F)F)nn1-c1ncccc1Cl", "note": "[Compound I-21, 2-(3-chloro-2-pyridyl)-N-[2-methyl-4-chloro-6-[(bis-2-propyl-λ^4-sulfanylidene)carbamoyl]phenyl]-5-(trifluoromethyl)pyrazole-3-carboxamide]", "values": [
      {"measurement": "Average (Control %)", "setting": "[4]; [9]", "value": 0, "unit": "%"},
      {"measurement": "Average (Control %)", "setting": "[1]; [8]", "value": 0, "unit": "%"},
      {"measurement": "Average (Control %)", "setting": "[1]; [7]", "value": 50, "unit": "%"},
      {"measurement": "Average (Control %)", "setting": "[2]; [9]", "value": 0, "unit": "%"}
    ]},
    {"compound": "CC[S+]([O-])c1c(C#N)nn(-c2c(Cl)cc(C(F)(F)F)cc2Cl)c1N", "note": "(centres unmarked) [Ethiprol]", "values": [
      {"measurement": "Average (Control %)", "setting": "[4]; 2 + 0 ppm (mixing partner alone at 2 ppm)", "value": 50, "unit": "%"},
      {"measurement": "Average (Control %)", "setting": "[1]; [6]", "value": 0, "unit": "%"},
      {"measurement": "Average (Control %)", "setting": "[2]; 10 + 0 ppm (mixing partner alone at 10 ppm)", "value": 0, "unit": "%"}
    ]},
    {"compound": "CCOC(=O)OC1=C(c2cc(C)ccc2C)C(=O)N[C@]12CC[C@@H](OC)CC2", "note": "[Spirotetramat, spirotetramat, reference compound]", "values": [
      {"measurement": "Average (Control %)", "setting": "[3]; [10]", "value": 0, "unit": "%"},
      {"measurement": "Average (Control %)", "setting": "[3]; 80 + 0 ppm (mixing partner alone at 80 ppm)", "value": 50, "unit": "%"},
      {"measurement": "Average (Control %)", "setting": "[1]; [10]", "value": 0, "unit": "%"},
      {"measurement": "Average (Control %)", "setting": "[5]; Spirotetramat + I-11 at 80 + 0 ppm (Spirotetramat alone, 80 ppm)", "value": 25, "unit": "%"}
    ]},
    {"compound": "N#C/N=C1\\SCCN1Cc1ccc(Cl)nc1", "note": "[Thiacloprid]", "values": [
      {"measurement": "Average (Control %)", "setting": "[3]; [11]", "value": 50, "unit": "%"},
      {"measurement": "Average (Control %)", "setting": "[4]; [11]", "value": 0, "unit": "%"}
    ]},
    {"compound": "Spinosad", "values": [
      {"measurement": "Average (Control %)", "setting": "[4]; [6]", "value": 0, "unit": "%"},
      {"measurement": "Average (Control %)", "setting": "[1]; [6]", "value": 0, "unit": "%"},
      {"measurement": "Average (Control %)", "setting": "[1]; 0.4 + 0 ppm (mixing partner alone at 0.4 ppm)", "value": 0, "unit": "%"},
      {"measurement": "Average (Control %)", "setting": "[2]; [6]", "value": 0, "unit": "%"}
    ]}
  ]
}
